{"source": "patent US6699847B2", "about": "“Antiparasitic formulation” (Pfizer Inc., priority 1998, dated 2004)", "origin": "cited, not measured here"}
{"smiles": "CO[C@H]1C[C@H](O[C@H]2[C@H](C)O[C@@H](O[C@@H]3/C(C)=C/C[C@@H]4C[C@@H](C[C@]5(C=C[C@H](C)[C@@H](C6CCCCC6)O5)O4)OC(=O)[C@@H]4C=C(C)[C@@H](O)[C@H]5OC/C(=C\\C=C\\[C@@H]3C)[C@]54O)C[C@@H]2OC)O[C@@H](C)[C@@H]1O", "note": "[Doramectin]", "values": [{"measurement": "solubility in water", "value": "sparingly soluble"}]}
